ChEMBL document CHEMBL1144434, “Structure-activity relationships within a series of caspase inhibitors. Part 2: Heterocyclic warheads” (Bioorg Med Chem Lett, 2005)

Experiments:
Caspase-8 (Homo sapiens) = Caspase-8 (Homo sapiens) (UniProt Q14790); assay: Binding affinity against Caspase-8
Jurkat = assay: Inhibitory concentration for cellular activity in jurkat assay; type: functional, cell-based; conditions: Homo sapiens
Caspase-6 (Homo sapiens) [1] = biological target: T1, Caspase-6 (Homo sapiens) (UniProt P55212); assay: Reversible inhibition against Caspase-6
T1 sequence (whole entry): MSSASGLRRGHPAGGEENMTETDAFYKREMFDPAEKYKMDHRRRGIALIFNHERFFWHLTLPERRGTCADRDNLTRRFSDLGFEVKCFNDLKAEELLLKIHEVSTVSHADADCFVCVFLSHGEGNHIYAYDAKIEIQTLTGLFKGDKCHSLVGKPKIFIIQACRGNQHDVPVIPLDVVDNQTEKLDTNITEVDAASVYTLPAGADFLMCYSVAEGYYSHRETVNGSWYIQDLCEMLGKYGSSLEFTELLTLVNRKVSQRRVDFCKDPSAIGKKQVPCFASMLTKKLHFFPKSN

Caspase-1 (Mus musculus) = biological target: T2, Caspase-1 (Mus musculus) (UniProt P29452); assay: Binding affinity against mouse Caspase-1
T2 sequence (whole entry): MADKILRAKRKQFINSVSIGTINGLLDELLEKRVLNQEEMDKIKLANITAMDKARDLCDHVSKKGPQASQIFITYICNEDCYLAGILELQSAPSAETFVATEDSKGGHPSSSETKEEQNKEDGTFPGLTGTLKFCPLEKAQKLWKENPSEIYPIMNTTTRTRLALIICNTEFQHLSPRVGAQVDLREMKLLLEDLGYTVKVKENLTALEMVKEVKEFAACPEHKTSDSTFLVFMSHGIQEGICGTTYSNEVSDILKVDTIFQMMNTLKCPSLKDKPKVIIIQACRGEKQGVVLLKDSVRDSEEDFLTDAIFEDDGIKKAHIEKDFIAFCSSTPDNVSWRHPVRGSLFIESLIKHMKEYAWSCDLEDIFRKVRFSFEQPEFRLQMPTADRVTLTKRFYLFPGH

Caspase-3 (Homo sapiens) = biological target: T3, Caspase-3 (Homo sapiens) (UniProt P42574); assay: Binding affinity against Caspase-3
T3 sequence (whole entry): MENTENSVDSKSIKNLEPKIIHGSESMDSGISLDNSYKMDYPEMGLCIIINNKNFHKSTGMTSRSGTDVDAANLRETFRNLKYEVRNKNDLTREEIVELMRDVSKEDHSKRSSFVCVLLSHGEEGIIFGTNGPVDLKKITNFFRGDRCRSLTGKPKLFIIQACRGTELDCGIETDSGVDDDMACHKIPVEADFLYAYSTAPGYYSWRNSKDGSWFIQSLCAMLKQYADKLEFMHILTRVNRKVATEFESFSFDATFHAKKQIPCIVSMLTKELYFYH

Caspase-6 (Homo sapiens) [2] = biological target: T1, Caspase-6 (Homo sapiens); assay: Binding affinity against Caspase-6

Chain of Caspase-8 (Homo sapiens) (Q14790 217-374 limits assumed): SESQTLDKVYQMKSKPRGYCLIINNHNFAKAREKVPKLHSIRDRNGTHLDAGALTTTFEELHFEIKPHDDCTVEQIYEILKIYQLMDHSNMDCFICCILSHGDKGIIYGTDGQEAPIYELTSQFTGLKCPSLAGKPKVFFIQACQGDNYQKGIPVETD
Chain of Caspase-8 (Homo sapiens) (Q14790 385-479 limits assumed): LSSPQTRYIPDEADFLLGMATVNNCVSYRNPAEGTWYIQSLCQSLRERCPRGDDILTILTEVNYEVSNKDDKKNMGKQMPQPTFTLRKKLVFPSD

k3/ki (Caspase-8 (Homo sapiens))	IC50 (Jurkat)	k3/ki (Caspase-6 (Homo sapiens) [1])	k3/ki (Caspase-1 (Mus musculus))	k3/ki (Caspase-3 (Homo sapiens))	k3/ki (Caspase-6 (Homo sapiens) [2])	Structure (SMILES)
120 1/m/s	> 200 µM	–	950 1/m/s	7130 1/m/s	656 1/m/s	Cc1cc(C)nc(SCC(=O)[C@H](CC(=O)O)NC(=O)[C@@H](NC(=O)COc2cccc3ccccc23)C(C)C)n1
0 1/m/s	190 µM	–	5480 1/m/s	5240 1/m/s	83 1/m/s	Cc1nnc(SCC(=O)[C@H](CC(=O)O)NC(=O)[C@@H](NC(=O)COc2cccc3ccccc23)C(C)C)s1

More lines, now with the values behind:

Structure (SMILES)	k3/ki (Caspase-8 (Homo sapiens))	IC50 (Jurkat)	k3/ki (Caspase-6 (Homo sapiens) [1])	k3/ki (Caspase-1 (Mus musculus))	k3/ki (Caspase-3 (Homo sapiens))	k3/ki (Caspase-6 (Homo sapiens) [2])
CCOC(=O)c1c(C)noc1OCC(=O)[C@H](CC(=O)O)NC(=O)[C@@H](NC(=O)COc1cccc2ccccc12)C(C)C	1140 1/m/s	> 200 µM	0 1/m/s	1440 1/m/s	5670 1/m/s	–
CC(C)[C@H](NC(=O)COc1cccc2ccccc12)C(=O)N[C@@H](CC(=O)O)C(=O)COc1cncc2ccccc12	0 1/m/s	166 µM	–	0 1/m/s	0 1/m/s	0 1/m/s
CC(C)[C@H](NC(=O)COc1cccc2ccccc12)C(=O)N[C@@H](CC(=O)O)C(=O)COn1nnc2ccccc21	14500 1/m/s	> 200 µM	–	28300 1/m/s	121000 1/m/s	8530 1/m/s
CC(C)[C@H](NC(=O)COc1cccc2ccccc12)C(=O)N[C@@H](CC(=O)O)C(=O)CSc1nncn1C	293 1/m/s	> 200 µM	–	180 1/m/s	2260 1/m/s	221 1/m/s
